Where a name gives a salt, the structure may show the parent alone.
Columns and labels:
[1] = test system: cancer cachexia patients; conditions: cited from earlier work
[2] = test system: malignant tumor model animals obtained by transplanting A549 cells to nude mice; assay: Gripping force of the forelimb (grip test activity meter) in malignant tumor model; assay type: in vivo, mouse; conditions: oral, every day for 28 days, 0.125 mg/kg and 0.25 mg/kg (both doses), 28th day
Method: (§1) On malignant tumor model animals obtained by transplanting A549 cells, adenocarcinomic human alveolar basal epithelial cells, to nude mice, an ameliorating action on a muscle weakness by administering (−)-17-(cyclopropylmethyl)-3,14β-dihydroxy-4,5α-epoxy-6β-[N-methyl-trans-3-(3-furyl)acrylamide]morphinan hydrochloride (hereinafter, compound 1) produced in accordance with International Publication No. WO 93/015081 was evaluated. […] For this reason, an evaluation of an ameliorating effect and a prophylactic effect on the muscle weakness symptom is considered to be possible.
(§2) A549 cell subculture was carried out using 10% FBS-containing RPMI 1640 medium. For an evaluation of drug efficacy, 7-week old female BALB/C slc/nu/nu mice (Japan SLC, Inc.) were purchased, acclimated for 1 week and then used. The malignant tumor model animal was created as follows. […] The tumor volume was determined by measuring a tumor diameter using a digital vernier caliper by the following calculating formula. […]
(§3) 43rd to 70th days from cell transplantation, compound 1 was orally administered every day to the malignant tumor model animals for 28 days. […] Using a grip test activity meter (Muromachi Kikai Co., Ltd.), a muscle strength was evaluated by measuring a gripping force of the forelimb on 28th day after starting administration of compound 1 (last day of the administration). […]

[3] = test system: SAMP8 mice; assay: Gripping force of the forelimb (grip test activity meter) in senescence-accelerated model; assay type: in vivo, mouse; conditions: oral, every day for 28 days, 0.125 mg/kg and 0.25 mg/kg (both doses), 28th day, vs distilled water administered group, Williams' test P<0.05
Method: as §1, with “senescence-accelerated models, SAMP8” for “malignant tumor model animals obtained by transplanting A549 cells, adenocarcinomic human alveolar basal epithelial cells, to nude”, “(compound” for “(hereinafter, compound”
For the evaluation of drug efficacy, 7-week old male SAMP8/TaSlc mice (Japan SLC, Inc.) were purchased, then kept for 9 months and used for the test. For the total of 3 days from 3 days to 1 day before administration of the test substance, a gripping force of the forelimb was measured using a grip test activity meter, an average value of the 3 days was calculated, and then the mice were grouped in such a way that the average of muscle strengths in each group was equal. To clarify that the model is a muscle weakness model, a control of a senescence-accelerated model animal was set. […]
Compound 1 was orally administered to SAMP8 mice every day for 28 days. […] Using a grip test activity meter, the muscle strength was evaluated by measuring a gripping force of the forelimb on 28th day after starting administration of compound 1 (last day of the administration). […]

[4] = test system: A549 cells; assay: Tumor volume in malignant tumor model (A549 cells transplanted to nude mice); assay type: in vivo, mouse; conditions: oral, every day for 28 days, 0.125 mg/kg and 0.25 mg/kg (both doses); tumor volume on 28th day; vs distilled water administered group
Method: as §1, §2, §3

Structure (SMILES) | ameliorating action on a muscle weakness symptom (physical function) [1] | lean body mass [1] | gripping force (muscle strength) compared with the model control group [2] | increasing action on the gripping force (muscle strength) ([2]; vs distilled water administered group, Dunnett's test P<0.05) | increasing action on the gripping force (muscle strength) [3] | suppressing action on the tumor volume increase [4]
C[C@](O)(COc1ccc(C#N)cc1)C(=O)Nc1ccc(C#N)c(C(F)(F)F)c1 [enobosarm] | the effect thereof is not acknowledged | increases a lean body mass | – | – | – | –
CN(C(=O)/C=C/c1ccoc1)[C@@H]1CC[C@@]2(O)[C@H]3Cc4ccc(O)c5c4[C@@]2(CCN3CC2CC2)[C@H]1O5 [compound 1, (−)-17-(cyclopropylmethyl)-3,14β-dihydroxy-4,5α-epoxy-6β-[N-methyl-trans-3-(3-furyl)acrylamide]morphinan hydrochloride] | – | – | ameliorated to the extent that is equal to the gripping force (muscle strength) of the model control group | statistically remarkable increasing action on the gripping force (muscle strength) | statistically remarkable increasing action on the gripping force (muscle strength) | did not show any suppressing action on the tumor volume increase
CN(C)N(C)C(=O)[C@@]1(Cc2ccccc2)CCCN(C(=O)[C@@H](Cc2c[nH]c3ccccc23)NC(=O)C(C)(C)N)C1 [Anamorelin] | does not show an ameliorating action on a muscle weakness symptom | increases a lean body mass | – | – | – | –
